In the data set the test system is Panc02.MUC1 tumor cells. Kind of data set: MUC1 cytoplasmic tail peptide vaccination and Panc02.MUC1 tumor challenge.

Where no end group is shown, it is not given here.

Regarding “CQCRRKNYGQLDIFPARDTYHPMSEYPTYH (cysteine pairing not given here) [SEQ ID NO:47]”, the survival entry (MUC1.Tg mice, three s.c. vaccinations at seven day intervals, Panc02.MUC1 challenge 10 days after final, vs control peptide or nonvaccinated, p<0.05) is recorded as “significant increase in survival”. Besides, the autoimmunity in organs entry (necropsy and histology, vaccinated MUC1.Tg mice challenged with Panc02.MUC1) is reported as “no evidence of autoimmunity”.

(Values after patent publication US8653233B2, “Compositions and methods for preventing or treating cancer” (University of Nebraska Medical Center, priority 2003, dated 2014).)
